From US8987287B2, “Spirocyclic morphinans and their use” (Purdue Pharma L.P., priority 2012, dated 2015) come the findings set out here.

For assay [1], the target named is T1, δ opioid receptor (Homo sapiens (Human), UniProt P41143). Description: δ-opioid receptor radioligand ([3H]-Naltrindole) dose-displacement binding assay. The following applies: binding affinity. As for the experimental part:
δ-Opioid Receptor Binding Assay Procedures: δ-Opioid Receptor Binding Assay Procedures were conducted as follows. Radioligand dose-displacement assays used 0.3 nM [^3H]-Naltrindole (Perkin Elmer, Shelton, Conn.; 33.0 Ci/mmole) with 5 μg membrane protein (Perkin Elmer, Shelton, Conn.) in a final volume of 500 μl binding buffer (5 mM MgCl2, 5% DMSO, 50 mM Trizma base, pH 7.4). Non-specific binding was determined in the presence of 25 μM unlabeled naloxone. All reactions were performed in 96-deep well polypropylene plates for 1 hour at a temperature of about 25° C. Binding reactions were terminated by rapid filtration onto 96-well Unifilter GF/C filter plates (Perkin Elmer, Shelton, Conn.) presoaked in 0.5% polyethylenimine (Sigma). Harvesting was performed using a 96-well tissue harvester (Perkin Elmer, Shelton, Conn.) followed by five filtration washes with 500 μl ice-cold binding buffer. Filter plates were subsequently dried at 50° C. for 1-2 hours. Fifty μl/well scintillation cocktail (Perkin Elmer, Shelton, Conn.) was added and plates were counted in a Packard Top-Count for 1 min/well.
In TABLE 1, binding affinity of certain Compounds of the Invention to the μ-, δ- and κ-opioid receptors was determined as described above.

Assay [2] addresses T1, δ opioid receptor. Description: δ-opioid receptor [35S]GTPγS functional assay, HEK-293 or CHO cells. The settings on record: for Emax: relative to met-enkephalin, HEK-293 or CHO cells. Format: biochemical. As for the experimental part: δ-Opioid Receptor Functional Assay Procedures: Functional [^35S]GTPγS binding assays were conducted as follows. δ opioid receptor membrane solution was prepared by sequentially adding final concentrations of 0.026 μg/μl δ membrane protein (Perkin Elmer, Shelton, Conn.), 10 μg/mL saponin, 3 μM GDP and 0.20 nM [^35S]GTPγS to binding buffer (100 mM NaCl, 10 mM MgCl2, 20 mM HEPES, pH 7.4) on ice. The prepared membrane solution (190 μl/well) was transferred to 96-shallow well polypropylene plates containing 10 μl of 20× concentrated stock solutions of agonist prepared in DMSO. Plates were incubated for 30 min at a temperature of about 25° C. with shaking. Reactions were terminated by rapid filtration onto 96-well Unifilter GF/B filter plates (Perkin Elmer, Shelton, Conn.) using a 96-well tissue harvester (Packard) and followed by three filtration washes with 200 μl ice-cold binding buffer (10 mM NaH2PO4, 10 mM Na2HPO4, pH 7.4). Filter plates were subsequently dried at 50° C. for 1-2 hours. Fifty μl/well scintillation cocktail (Perkin Elmer, Shelton, Conn.) was added and plates were counted in a Packard Top-count for 1 min/well.
δ-Opioid Receptor Functional Data: δ GTP EC50 is the concentration of a compound providing 50% of the maximal response for the compound at a δ receptor.
δ GTP Emax (%) is the maximal effect elicited by a compound relative to the effect elicited by met-enkephalin.
In TABLE 2, activity response of certain Compounds of the Invention to the μ-, δ- and κ-opioid receptors was determined as described above for functional assays using HEK-293 or CHO cells.

Assay [3] addresses κ opioid receptor (Homo sapiens (Human), UniProt P41145). Description: κ-opioid receptor radioligand ([3H]-U69,593) dose-displacement binding assay. The following applies: binding affinity, read-out: Opioid Receptor Ki (nM) κ.

Structures are written as SMILES.

T1 sequence (P41143 whole entry, looked up): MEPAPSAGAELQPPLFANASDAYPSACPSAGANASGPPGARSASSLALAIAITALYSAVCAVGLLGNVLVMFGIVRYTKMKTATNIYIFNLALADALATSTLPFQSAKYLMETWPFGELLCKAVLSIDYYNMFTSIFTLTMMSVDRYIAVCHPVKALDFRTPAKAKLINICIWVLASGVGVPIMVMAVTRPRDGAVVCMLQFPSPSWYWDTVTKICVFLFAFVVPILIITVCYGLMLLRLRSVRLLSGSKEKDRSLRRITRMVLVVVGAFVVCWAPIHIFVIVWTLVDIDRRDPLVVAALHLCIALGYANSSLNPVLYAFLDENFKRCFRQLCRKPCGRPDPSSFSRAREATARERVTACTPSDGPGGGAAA

A word on the Ki: it is the dissociation constant of the complex between target and ligand, obtained from inhibition or displacement. What is called EC50 is the concentration at which the effect is half-maximal. High values mean weaker potency, low ones greater potency. The Emax is the maximal effect, on the per cent scale that the assay sets. Take `O=C1NC[C@@]2(CC[C@@]3(O)[C@H]4Cc5ccc(O)cc5[C@@]3(CCN4CC3CC3)C2)N1` [Compound 5, (4bR,4′S,8aS,9R)-11-(cyclopropylmethyl)-3,8a-dihydroxy-5,7,8,8a,9,10-hexahydrospiro[9,4b-(epiminoethano)phenanthrene-6,4′-imidazolidin]-2′-one]: in assay [1], the Ki was 272 ± 25.3 nM. In assay [2], the EC50 turned out to be 37 ± 15 nM and the maximum response (Emax) came out at 34.3 ± 2.91%. In addition, in assay [3], the Ki worked out at 0.94 ± 0.18 nM.

In assay [1], `O=C1NC(=O)[C@@]2(CC[C@@]3(O)[C@H]4Cc5ccc(O)cc5[C@@]3(CCN4CC3CC3)C2)N1` [Compound 3, (4bR,4′S,8aS,9R)-11-(cyclopropylmethyl)-3,8a-dihydroxy-5,7,8,8a,9,10-hexahydrospiro[9,4b-(epiminoethano)phenanthrene-6,4′-imidazolidine]-2′,5′-dione] showed a Ki of 177 ± 36.7 nM. In assay [2], this compound yielded an EC50 of 34.8 ± 7.78 nM and an Emax of 42.5 ± 2.84%. The inhibition constant (Ki) in assay [3] was 0.6 ± 0.15 nM.
